{"source": "patent US12144344B2", "about": "“Compositions and methods for modulating root growth” (DUKE UNIVERSITY, priority 2018, dated 2024)", "key": {"[1]": {"system": "lateral root clock (pDR5:LUC)", "assay": "Lateral root clock oscillation amplitude (pDR5:LUC reporter)", "format": "in vivo, Arabidopsis thaliana", "settings": "for amplitude of the lateral root clock relative to D15 treatment (rescue of D15 inhibition of lateral root initiation): roots treated with D15 for several days, then 10 μM apocarotenoid added, FIG. 4A"}, "Arabidopsis thaliana": {"system": "Arabidopsis thaliana", "assay": "Root phenotyping: primary root growth, lateral root capacity/branching, lateral root primordia", "format": "in vivo"}, "Arabidopsis roots": {"system": "Arabidopsis roots", "assay": "Merocyanine aldehyde RBP reporter fluorescence in Arabidopsis roots", "format": "in vivo, Arabidopsis thaliana", "settings": "D15 treatment"}, "Arabidopsis tissue": {"system": "Arabidopsis tissue", "assay": "Extraction, derivatization and HPLC-MS analysis of apocarotenoid levels in plant tissue upon D15 treatment", "format": "in vivo, Arabidopsis thaliana", "settings": "D15 treated plants, whole plant; FIG. 2B"}, "CCD8": {"molecular_target": "T1, CCD8 (Arabidopsis thaliana, UniProt Q8VY26)", "T1 sequence (Q8VY26 57-570)": "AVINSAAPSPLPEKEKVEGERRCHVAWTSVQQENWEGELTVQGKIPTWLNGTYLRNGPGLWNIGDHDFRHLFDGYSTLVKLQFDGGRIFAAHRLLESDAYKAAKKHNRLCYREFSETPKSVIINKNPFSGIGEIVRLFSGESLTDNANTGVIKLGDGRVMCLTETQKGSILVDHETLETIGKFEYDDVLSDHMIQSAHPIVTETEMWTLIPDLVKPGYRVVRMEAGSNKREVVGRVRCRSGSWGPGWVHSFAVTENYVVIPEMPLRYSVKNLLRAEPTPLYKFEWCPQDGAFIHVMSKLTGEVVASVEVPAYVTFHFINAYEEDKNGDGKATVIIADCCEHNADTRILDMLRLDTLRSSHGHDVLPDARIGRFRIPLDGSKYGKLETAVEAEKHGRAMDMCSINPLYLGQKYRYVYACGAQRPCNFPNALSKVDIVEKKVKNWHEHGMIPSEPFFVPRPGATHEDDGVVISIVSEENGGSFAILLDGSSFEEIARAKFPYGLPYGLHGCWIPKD", "settings": "stated as known; cited from earlier work"}, "[2]": {"settings": "co-treatment with 500 nM Apo14 and D15, FIG. 4B"}, "[3]": {"settings": "co-treatment with 1 μM retinal and 125 μM D15, FIG. 4C"}}, "data": [{"molecule": "CC1=C(/C=C/C(C)=C/C=C/C(C)=C/C=C/C=O)C(C)(C)CCC1", "note": "[Apo14, apo-14-carotenal]", "values": [{"measurement": "amplitude of the lateral root clock relative to D15 treatment (rescue of D15 inhibition of lateral root initiation)", "setting": "[1]", "result": "significantly increased"}, {"measurement": "rescue of D15 inhibition of lateral root development (lateral root capacity)", "setting": "Arabidopsis thaliana; [2]", "result": "fully rescue"}, {"measurement": "rescue of D15 inhibition of primary root growth", "setting": "Arabidopsis thaliana; [2]", "result": "fully rescue"}]}, {"molecule": "N-(4-fluorobenzyl)-methoxycinnamic hydroxamic acid [D15]", "values": [{"measurement": "merocyanine aldehyde fluorescence in the root meristem", "setting": "Arabidopsis roots", "result": "reduced"}, {"measurement": "number of merocyanine aldehyde pulses", "setting": "Arabidopsis roots; elongation and differentiation zones, FIG. 1E", "result": "significantly reduced"}, {"measurement": "levels of more hydrophilic apocarotenoids such as beta-cyclocitral and beta-ionone", "setting": "Arabidopsis tissue", "result": "did not affect"}, {"measurement": "levels of retinal as well as the related apocarotenoids", "setting": "Arabidopsis tissue", "result": "reduced"}, {"measurement": "amplitude of oscillations in pDR5:LUC marker line", "setting": "[1]; D15-treated plants, FIG. 3", "result": "significantly decreased"}, {"measurement": "root growth and lateral root organogenesis", "setting": "Arabidopsis thaliana; D15 treatment", "result": "defects"}, {"measurement": "CCD8 inhibition", "setting": "CCD8", "result": "can inhibit"}]}, {"molecule": "CC1=C(/C=C/C(C)=C/C=C/C(C)=C/C=C/C=C(C)/C=C/C=O)C(C)(C)CCC1", "note": "[Apo-10-carotenal, apo-10-carotenal]", "values": [{"measurement": "amplitude of the lateral root clock relative to D15 treatment (rescue of D15 inhibition of lateral root initiation)", "setting": "[1]", "result": "partially rescue"}]}, {"molecule": "CC1=C(/C=C/C(C)=C/C=C/C(C)=C/C=O)C(C)(C)CCC1", "note": "[retinal, apo-16-carotenal]", "values": [{"measurement": "amplitude of the lateral root clock relative to D15 treatment (rescue of D15 inhibition of lateral root initiation)", "setting": "[1]", "result": "significantly increased"}, {"measurement": "rescue of D15 inhibition of lateral root development (lateral root branching)", "setting": "Arabidopsis thaliana; [3]", "result": "fully rescue"}, {"measurement": "rescue of D15 inhibition of primary root growth", "setting": "Arabidopsis thaliana; [3]", "result": "fully rescue"}, {"measurement": "primary root length", "setting": "Arabidopsis thaliana; retinal alone, absence of D15", "result": "did not affect"}, {"measurement": "number of lateral root primordia", "setting": "Arabidopsis thaliana; retinal alone, absence of D15, FIG. 4D", "result": "significantly increase"}]}, {"molecule": "CC1=C(/C=C/C(C)=C/C=C/C(C)=C/C=C/C=C(\\C)C=O)C(C)(C)CCC1", "note": "[apo-12-carotenal]", "values": [{"measurement": "amplitude of the lateral root clock relative to D15 treatment (rescue of D15 inhibition of lateral root initiation)", "setting": "[1]", "result": "partially rescue"}]}]}
